Reference: patent publication US6992079B2, “Substituted 11-phenyl-dibenzazepine compounds useful for the treatment or prevention of diseases characterized by abnormal cell proliferation” (President Fellows of Harvard College, priority 1997, dated 2006)
pIC50: −log10 of the molar value. Like-named read-outs stand apart in the source and are kept apart here.

Experiments:
NCI-H226 = format: cell-based
U251 = assay: In-Vitro Testing SRB panel: CNS Cancer; format: cell-based
[1] = Preliminary toxicology, subcutaneous injection for 14 days; format: in vivo, CD-1 female mice; settings: CD-1 female mice; 80 mg/kg/day s.c. 14 days
Method: The toxicological effects of CLT, and compounds 28, 30 and 31 were tested in CD-1 female mice. A dose of 80 mg/kg/day was given to each mouse via subcutaneous injection for a period of 14 days. Preliminary toxicological data was determined by measuring body weight, gross pathology of organs blood chemistry and histology. The vehicle used was DMF 12%+2% Tween 20 88%.

COLO 205 = assay: In-Vitro Testing SRB panel: Colon Cancer; format: cell-based
NCI-H23 = format: cell-based
[2] = tested on: A2058 metastatic melanoma; assay: Mouse xenograft tumor growth; format: in vivo, CD-1 nude mice
Method: NCI-A2058 human melanoma cell line was grown as monolayer culture in Minimum essential medium (D-MEM) supplemented with 10% fetal bovine serum (FBS), 0.1 mM non-essential amino acid, 1.0 mM sodium pyruvate, 100U/ml penicillin, 100 μg/ml streptomycin and 0.25 μg/ml amphotericin B and L-alanyl-1-glutamine (2 mM) at 37° C. in an atmosphere of 5% CO2 in air. The tumor cells were routinely subcultured twice weekly by trypsin-EDTA treatment. The cells were harvested from subconfluent logarithmically growing culture by treatment with typsin-EDTA and counted for tumor inoculation.
An acclimation period of at least 7 days were allowed between animal receipt and commence of tumor inoculation. When the female CD-1 nude mice were more than 6-7 weeks of age (20-25 g), each mouse was subcutaneously injected with 5.0×10^6 NCI-A2058 human melanoma cells in 0.1 ml of PBS solution at the right flank of the mice to induce tumor growth.

HEPG2 = assay: SRB antiproliferative assay; format: cell-based; settings: Homo sapiens, HepG2, HEPG2 (Hepatocel), 5% FCS/5 day incubation
Source text: (§1) The cells were passaged using Trypsin (Gibco).

HT29 = assay: SRB antiproliferative assay; format: cell-based; settings: Homo sapiens, HT-29, HT29 (Colon), 5% FCS/5 day incubation
Source text: as §1

HeLa = assay: SRB antiproliferative assay; format: cell-based; settings: Homo sapiens, HeLa (Cervical), 5% FCS/5 day incubation
Source text: as §1

MCF7 = assay: SRB antiproliferative assay; format: cell-based; settings: Homo sapiens, MCF7, MCF7 (Breast), 5% FCS/5 day incubation
Source text: as §1

U118MG = assay: SRB antiproliferative assay; format: cell-based; settings: Homo sapiens, U-118-MG, U118MG (CNS), 5% FCS/5 day incubation
Source text: as §1

A549 = assay: SRB antiproliferative assay; format: cell-based; settings: Homo sapiens, A549, A549 (Lung), 5% FCS/5 day incubation
Source text: as §1

OVCAR-3 = assay: In-Vitro Testing SRB panel: Ovarian Cancer
SF-295 = assay: In-Vitro Testing SRB panel: CNS Cancer; format: cell-based
A498 = assay: In-Vitro Testing SRB panel: Renal Cancer; format: cell-based
SF-539 = assay: In-Vitro Testing SRB panel: CNS Cancer; format: cell-based

SMILES: COc1ccc2c(c1)CN(C(=O)c1ccc([N+](=O)[O-])cc1)c1ccc(Cl)cc1C2c1ccccc1Cl (stereo not shown) [Compound 30]
- GI50 (NCI-H226; Homo sapiens, NCI-H226): 3.98 µM
- CC50 (NCI-H226; Homo sapiens, NCI-H226, read-out: LC50 (the source's name)): > 100 µM
- TGI (NCI-H226; NCI-H226): >1.00E−04 Molar
- Percent Growth (NCI-H226; NCI-H226, Log10 concentration −4.0 Molar): 34%
- Percent Growth (NCI-H226; NCI-H226, Log10 concentration −5.0 Molar): 35%
- Percent Growth (NCI-H226; NCI-H226, Log10 concentration −6.0 Molar): 73%
- Percent Growth (NCI-H226; NCI-H226, Log10 concentration −7.0 Molar): 79%
- Percent Growth (NCI-H226; NCI-H226, Log10 concentration −8.0 Molar): 83%
- GI50 (U251; Homo sapiens, U-251): 5.1 µM
- CC50 (U251; Homo sapiens, U-251, U251, read-out: LC50 (the source's name)): > 100 µM
- TGI (U251; U251): >1.00E−04 Molar
- Percent Growth (U251; U251, Log10 concentration −4.0 Molar): 37%
- Percent Growth (U251; U251, Log10 concentration −5.0 Molar): 37%
- Percent Growth (U251; U251, Log10 concentration −6.0 Molar): 81%
- Percent Growth (U251; U251, Log10 concentration −7.0 Molar): 103%
- Percent Growth (U251; U251, Log10 concentration −8.0 Molar): 94%
- Body Weight Change [1]: 108%
- Liver Weight [1]: 1.52 ± 0.23 g
- RBC [1]: 8.2 ± 0.2 10^6/mm^3
- WBC [1]: 6.4 ± 1.7 10^3/mm^3
- WBC, RBC, BUN and creatine levels [1]: no differences were found
- TGI (COLO 205; COLO 205): >1.00E−04 Molar
- Percent Growth (COLO 205; COLO 205, Log10 concentration −4.0 Molar): 43%
- Percent Growth (COLO 205; COLO 205, Log10 concentration −5.0 Molar): 46%
- Percent Growth (COLO 205; COLO 205, Log10 concentration −6.0 Molar): 68%
- Percent Growth (COLO 205; COLO 205, Log10 concentration −7.0 Molar): 87%
- Percent Growth (COLO 205; COLO 205, Log10 concentration −8.0 Molar): 93%
- GI50 (COLO 205; Homo sapiens, COLO 205): 6.64 µM
- CC50 (COLO 205; Homo sapiens, COLO 205, read-out: LC50 (the source's name)): > 100 µM
- GI50 (NCI-H23; Homo sapiens, NCI-H23): > 100 µM
- CC50 (NCI-H23; Homo sapiens, NCI-H23, read-out: LC50 (the source's name)): > 100 µM
- TGI (NCI-H23; NCI-H23): >1.00E−04 Molar
- Percent Growth (NCI-H23; NCI-H23, Log10 concentration −4.0 Molar): 55%
- Percent Growth (NCI-H23; NCI-H23, Log10 concentration −5.0 Molar): 60%
- Percent Growth (NCI-H23; NCI-H23, Log10 concentration −6.0 Molar): 84%
- Percent Growth (NCI-H23; NCI-H23, Log10 concentration −7.0 Molar): 97%
- Percent Growth (NCI-H23; NCI-H23, Log10 concentration −8.0 Molar): 93%
- tumor growth [2]: showed inhibition of tumor growth
- pIC50 (HEPG2): 6.05
- pIC50 (HT29): 6.22
- pIC50 (HeLa): 6.30
- pIC50 (MCF7): 5.89
- pIC50 (U118MG): 6.10
- pIC50 (A549): 5.82
- GI50 (OVCAR-3; Homo sapiens, OVCAR-3): 10.2 µM
- CC50 (OVCAR-3; Homo sapiens, OVCAR-3, read-out: LC50): > 100 µM
- TGI (OVCAR-3; OVCAR-3): >1.00E−04 Molar
- Percent Growth (OVCAR-3; OVCAR-3, Log10 concentration −4.0 Molar): 43%
- Percent Growth (OVCAR-3; OVCAR-3, Log10 concentration −5.0 Molar): 50%
- Percent Growth (OVCAR-3; OVCAR-3, Log10 concentration −6.0 Molar): 89%
- Percent Growth (OVCAR-3; OVCAR-3, Log10 concentration −7.0 Molar): 105%
- Percent Growth (OVCAR-3; OVCAR-3, Log10 concentration −8.0 Molar): 95%
- GI50 (SF-295; Homo sapiens, SF-295): 6.49 µM
- CC50 (SF-295; Homo sapiens, SF-295, read-out: LC50 (the source's name)): > 100 µM
- TGI (SF-295; SF-295): >1.00E−04 Molar
- Percent Growth (SF-295; SF-295, Log10 concentration −4.0 Molar): 32%
- Percent Growth (SF-295; SF-295, Log10 concentration −5.0 Molar): 41%
- Percent Growth (SF-295; SF-295, Log10 concentration −6.0 Molar): 88%
- Percent Growth (SF-295; SF-295, Log10 concentration −7.0 Molar): 104%
- Percent Growth (SF-295; SF-295, Log10 concentration −8.0 Molar): 93%
- TGI (A498; A498): >1.00E−04 Molar
- Percent Growth (A498; A498, Log10 concentration −4.0 Molar): 54%
- Percent Growth (A498; A498, Log10 concentration −5.0 Molar): 64%
- Percent Growth (A498; A498, Log10 concentration −6.0 Molar): 87%
- Percent Growth (A498; A498, Log10 concentration −7.0 Molar): 102%
- Percent Growth (A498; A498, Log10 concentration −8.0 Molar): 95%
- GI50 (A498; Homo sapiens, A498): > 100 µM
- CC50 (A498; Homo sapiens, A498, read-out: LC50 (the source's name)): > 100 µM
- GI50 (SF-539; Homo sapiens, SF-539): 3.87 µM
- CC50 (SF-539; Homo sapiens, SF-539, read-out: LC50 (the source's name)): > 100 µM
- TGI (SF-539; SF-539): >1.00E−04 Molar
- Percent Growth (SF-539; SF-539, Log10 concentration −4.0 Molar): 20%
- Percent Growth (SF-539; SF-539, Log10 concentration −5.0 Molar): 33%
- Percent Growth (SF-539; SF-539, Log10 concentration −6.0 Molar): 75%
- Percent Growth (SF-539; SF-539, Log10 concentration −7.0 Molar): 92%
- Percent Growth (SF-539; SF-539, Log10 concentration −8.0 Molar): 93%
